# Experimental data taken from patent US20250073201A1, “COMPOSITIONS AND METHODS FOR TREATING ACUTE ALCOHOL INTAKE” (NEXT LEVEL HEALTH SCIENCES INC, priority 2021, published 2025).
# Test system: hangover symptoms
# Assay: Testing of composition components on alcohol-induced (hangover) symptoms
# Format: in vivo, human
# Description: To test, various components of the compositions disclosed herein, individuals were selected to test the efficacy of various formulations. The scale employed during the testing of alcohol-induced symptoms was as follows: (a) no symptoms; (b) very mild symptoms; (c) mild symptoms; (d) moderate symptoms; (e) severe symptoms; and/or (f) very severe symptoms. […] The testing was carried out by a person of average size and build consuming standard alcoholic drinks (e.g., a beer) and the components below were consumed generally prior to consumption of alcohol. […]
# [1] = man of average size, standard alcoholic drinks, taken prior to alcohol
structure (smiles),measurement,setting,value
"O=C1c2c(O)cc(O)cc2O[C@H](c2cc(O)c(O)c(O)c2)[C@H]1O [DHM, dihydromyricetin]",alcohol-induced symptoms,"3 drinks, 300 mg DHM (without DHM: very mild symptoms)",elimination of all symptoms
same,alcohol-induced symptoms,"3 drinks, less than 300 mg DHM (without DHM: very mild symptoms)",no reduction of symptoms
same,alcohol-induced symptoms,"6 drinks, 300 mg DHM (without DHM: moderate symptoms)",reduction to mild symptoms
same,alcohol-induced symptoms,"6 drinks, 750 mg DHM (without DHM: moderate symptoms)",reduction to very mild symptoms
same,alcohol-induced symptoms,"6 drinks, 1200 mg DHM (without DHM: moderate symptoms)",elimination of all symptoms
same,alcohol-induced symptoms,"9 drinks, 300 mg DHM (without DHM: severe symptoms)",no reduction of symptoms
same,alcohol-induced symptoms,"9 drinks, 750 mg DHM (without DHM: severe symptoms)",reduction to moderate symptoms
same,alcohol-induced symptoms,"9 drinks, 1200 mg DHM (without DHM: severe symptoms)",reduction to mild symptoms
same,alcohol-induced symptoms,"9 drinks, 1500 mg DHM (without DHM: severe symptoms)",reduction to very mild symptoms
same,alcohol-induced symptoms,"9 drinks, 1850 mg DHM (without DHM: severe symptoms)",reduction of all symptoms with the sole exception of fatigue
same,elimination of all symptoms,"12 and 15 drinks, all DHM doses tested","no dose of DHM, as tested, eliminated all symptoms"
same,alcohol-induced symptoms,"12 drinks, 750 mg DHM (without DHM: severe symptoms)",no reduction of symptoms
same,alcohol-induced symptoms,"12 drinks, 1200 mg DHM (without DHM: severe symptoms)",no reduction of symptoms
same,alcohol-induced symptoms,"12 drinks, 1500 mg DHM (without DHM: severe symptoms)",reduction to moderate symptoms
same,alcohol-induced symptoms,"12 drinks, 1850 mg DHM (1500 mg gave moderate symptoms)",no further reduction in symptoms
same,alcohol-induced symptoms,"12 drinks, 2400 mg DHM (1500 mg gave moderate symptoms)",no further reduction in symptoms
same,alcohol-induced symptoms,"15 drinks, 1500 mg DHM (without DHM: very severe symptoms)",no reduction of symptoms
same,alcohol-induced symptoms,"15 drinks, 1850 mg DHM (without DHM: very severe symptoms)",reduction to severe symptoms
same,alcohol-induced symptoms,"15 drinks, 2400 mg DHM (1850 mg gave severe symptoms)",no further reduction of symptoms
same,alcohol-induced symptoms,"15 drinks, 3600 mg DHM (1850 mg gave severe symptoms)",no further reduction of symptoms
same,alcohol-induced symptoms,"18 drinks, 1850 mg DHM (without DHM: very severe symptoms)",no reduction of symptoms
same,alcohol-induced symptoms,"18 drinks, 2400 mg DHM (without DHM: very severe symptoms)",no reduction of symptoms
same,alcohol-induced symptoms,"18 drinks, 3600 mg DHM (without DHM: very severe symptoms)",no reduction of symptoms
same,alcohol-induced symptoms,"18 drinks, 5000 mg DHM (without DHM: very severe symptoms)",no reduction of symptoms
same,dosage above which no additional benefits were seen,[1],about 1850 mg
same,dosage at which benefits on hangover symptoms begin,[1],about 300 mg
